Assay results: ChEMBL document CHEMBL5338737, “Lysine-Specific Demethylase 1 Promises to Be a Novel Target in Cancer Drug Resistance: Therapeutic Implications” (J Med Chem, 2023)

How the values were obtained:
[1] = molecular target: T1, Lysine-specific histone demethylase 1A (Homo sapiens, UniProt O60341); experiment: Inhibition of recombinant LSD1 (unknown origin) incubated for 1 hr by fluorescence based analysis
[2] = molecular target: T1, Lysine-specific histone demethylase 1A
Description: Inhibition of LSD1 (unknown origin)

Structure (SMILES)	IC50 [1] [nM]	IC50 [2] [nM]
COc1cc2c(c(O)c1OC)c(=O)c1ccccc1n2C [ARBORININE]	400	
NC1CC1c1ccc(NC(=O)c2ccc(O)c3ncccc23)cc1 (stereo not drawn)		< 1000
C/C(=N\NC(=O)c1cccc(S(=O)(=O)N2CCN(C)CC2)c1)c1cc(Cl)ccc1O		127
